These are literature values, as cited in patent US12390432B2, “Methods for treating allan-herndon-dudley syndrome” (PriZm, LLC, priority 2022, dated 2025).

For the series the following is noted: literature report, Groeneweg et al. Lancet Diabetes Endocrinol. 2019; cited from earlier work.

For the compound `O=C(O)Cc1cc(I)c(Oc2ccc(O)c(I)c2)c(I)c1` [TRIAC, triiodothyroacetic acid], the “thyroxine (T4) serum levels” value is “significantly reduce”.
